Four compounds from patent US11117898B2, “Pyrazolo-heteroaryl derivative, preparation method and medical use thereof” (Jiangsu Hengrui Medicine Co., Ltd., priority 2016, dated 2021) can be followed below.

As usually defined, the IC50 is the concentration at which inhibition is half-maximal. Broadly, the Emax is the maximal effect, on the per cent scale that the assay sets. What is called EC50 is the concentration that produces a half-maximal response. A higher EC50 goes with a less potent agent.

Data set [1] concerns the target T1, CYP3A4 (Homo sapiens (Human), UniProt P08684). In words: Inhibition of the midazolam metabolite site of CYP3A4 in human liver microsomes. Type of data set: in vitro ADME. The note with it: probe substrate midazolam. The method, then:
The effect of the compounds of the present invention on the enzyme activity of midazolam metabolite site of CYP3A4 in human liver microsomes was determined by the following experimental method:
(§1) 100 mM PBS buffer was formulated, which was then used to formulate 2.5 mg/ml microsome solution and 5 mM NADPH solution. The 5× concentration of the compound working solution was diluted with PBS gradient (150, 50, 15, 5, 1.5, 0.15, 0.015, 0 μM). The 5× concentration of ketoconazole working solution was diluted with PBS gradient (150, 50, 15, 5, 1.5, 0.15, 0.015, 0 μM). Dextromethorphan working solution was diluted with PBS to a concentration of 50 μM.
(§2) 20 μl of 2.5 mg/ml microsome solution, 20 μl of 50 μM testosterone working solution, 20 μl of MgCl2 solution and 20 μl of the compound working solution (150, 50, 15, 5, 1.5, 0.15, 0.015, 0 μM, different reaction systems for each concentration) were taken respectively and mixed well. For the positive control group, the compound was replaced with the same concentration of ketoconazole. The mixture together with 5 mM NADPH solution were pre-incubated at 37° C. for 5 minutes. After 5 minutes, 20 μl of NADPH were added to each well, the reaction was started and incubated for 30 minutes. All the incubated samples were present in duplicate. After 30 minutes, 250 μl of acetonitrile containing internal standard were added to all samples, mixed well, shaken at 800 rpm for 10 minutes, and then centrifuged at 3700 rpm for 10 minutes. 80 μl of the supernatant were taken and analyzed by LC-MS/MS.
The data were calculated by Graphpad Prism to obtain the IC50 values of the compounds on the midazolam metabolite site of CYP3A4.
On the technique in general: Liver microsomes are vesicles of endoplasmic reticulum, rich in cytochrome P450 enzymes.

Data set [2] concerns the target T1, CYP3A4. Description: Inhibition of the testosterone metabolite site of CYP3A4 in human liver microsomes. Type of data set: in vitro ADME. The conditions noted are these: probe substrate testosterone. The method, then: The effect of the compounds of the present invention on the enzyme activity of testosterone metabolite site of CYP3A4 in human liver microsomes was determined by the following experimental method:
as §1, §2
The data were calculated by Graphpad Prism to obtain the IC50 values of the compounds on the testosterone metabolite site of CYP3A4.

Data set [3] concerns PBMC. Description: Stimulation of the secretion of IFN-α from peripheral blood mononuclear cells (PBMC). The note with it: minimal effective concentration: lowest concentration giving cytokine level at least 3 times the minimum detection limit; 24 hours incubation. Type of data set: cell-based, human. The method, then: The ability of the compounds of the present invention to stimulate the secretion of IFN-α from PBMC was determined by the following experimental method:
The compound was diluted with pure DMSO to a maximum concentration of 5 mM, and a total of 9 points were obtained by a 4-fold gradient dilution. 4 μl of the compound were then added to 196 μl of RMPI 1640 medium containing 10% FBS and mixed well. 50 μl of the mixture were taken from each well and added to a new 96-well plate.
All reagents were equilibrated to room temperature. 60 ml of blood and PBS+2% FBS were added to a 250 ml culture flask, gently pipetted, mixed well and diluted. 15 ml of lymphocyte separation solution Ficoll-Paque PREMIUM and then 30 ml of diluted blood were added to a 50 ml PBMC centrifuge tube SepMate™-50. The mixture was centrifuged at 1200 g for 10 minutes at room temperature. The supernatant was taken and then centrifuged at 300 g for 8 minutes. The cells were re-suspended in the RMPI 1640 medium containing 10% FBS and counted, and the number of PBMCs was adjusted to 3.33×10^6 cells/ml. 150 μl of the cell solution were added to the plate added with the compound, and incubated in an incubator at 37° C., in 5.0% CO2 for 24 hours.
The cell culture plate was placed in a centrifuge, and centrifuged at 1200 rpm for 10 minutes at room temperature. 150 μl of the supernatant were taken from each well. The reagents in the human IFN-α kit were first equilibrated to normal temperature. The anti-IFN-α-Eu^3+-Cryptate conjugate and the anti-IFN-α-d2-conjugate were formulated in the dark according to the kit instructions, and both of them were mixed well with the conjugate buffer at a ratio of 1:40. 16 μl of the supernatant obtained by centrifugation were then added to each well. 2 μl of anti-IFN-α-Eu^3+-Cryptate conjugate and anti-IFN-α-d2-conjugate formulated just now were then added to each well. The plate was shaken and mixed well, and incubated in the dark at room temperature for 3 hours.
The PHERAStar was read in the HTRF mode. The lowest compound concentration that stimulated cytokine levels of at least 3 times higher than the minimum detection limit was defined as the minimal effective concentration (MEC) value of the compound in the cytokine stimulation test.
The ability of the compounds of the present invention to stimulate the secretion of IFN-α from PBMC was determined by the above test, and the obtained MEC values are shown in Table 3.

Data set [4] deals with human TLR7 (Homo sapiens (Human), UniProt Q9NYK1). In words: Agonistic activity on human TLR7 in HEK-Blue hTLR7 stably transfected cells. Type of data set: cell-based. The conditions noted are these: for EC50: OD 620 nm. The method, then: The activation effect of the compounds of the present invention on the hTLR7 protein expressed by the HEK-Blue™ hTLR7 stably transfected cells was determined by the following experimental method:
A bag of HEK-Blue detection dry powder was dissolved in 50 ml of water free of endotoxin, and the solution was then placed in an incubator at 37° C. for 10 minutes followed by sterile filtration to prepare a HEK-Blue detection medium. The compound was firstly formulated into a 20 mM stock solution, then diluted with pure DMSO to a maximum concentration of 6×10^6 nM, and a total of 10 points were obtained by a 3-fold gradient dilution.
The above formulated compound was firstly diluted 20-fold with the medium, then 20 μl of the diluted compound were added to each well. The supernate was removed from the HEK-Blue™ hTLR7 cells, to which 2-5 ml of pre-warmed PBS were then added. The cells were placed in an incubator for 1-2 minutes, gently pipetted, and counted by trypan blue staining. The cells were re-suspended in the HEK-Blue detection medium to adjust the concentration to 2.2×10^5 cells/ml. 180 μl of cells were added to the above 96-well plate already added with 20 μl of the compounds, and incubated at 37° C. for 6-16 hours.
The activation effect of the compounds of the present invention on human TLR7 can be determined by the above test, and the obtained EC50 values are shown in Table 1.

Chain of human TLR7 (Q9NYK1 27-1049): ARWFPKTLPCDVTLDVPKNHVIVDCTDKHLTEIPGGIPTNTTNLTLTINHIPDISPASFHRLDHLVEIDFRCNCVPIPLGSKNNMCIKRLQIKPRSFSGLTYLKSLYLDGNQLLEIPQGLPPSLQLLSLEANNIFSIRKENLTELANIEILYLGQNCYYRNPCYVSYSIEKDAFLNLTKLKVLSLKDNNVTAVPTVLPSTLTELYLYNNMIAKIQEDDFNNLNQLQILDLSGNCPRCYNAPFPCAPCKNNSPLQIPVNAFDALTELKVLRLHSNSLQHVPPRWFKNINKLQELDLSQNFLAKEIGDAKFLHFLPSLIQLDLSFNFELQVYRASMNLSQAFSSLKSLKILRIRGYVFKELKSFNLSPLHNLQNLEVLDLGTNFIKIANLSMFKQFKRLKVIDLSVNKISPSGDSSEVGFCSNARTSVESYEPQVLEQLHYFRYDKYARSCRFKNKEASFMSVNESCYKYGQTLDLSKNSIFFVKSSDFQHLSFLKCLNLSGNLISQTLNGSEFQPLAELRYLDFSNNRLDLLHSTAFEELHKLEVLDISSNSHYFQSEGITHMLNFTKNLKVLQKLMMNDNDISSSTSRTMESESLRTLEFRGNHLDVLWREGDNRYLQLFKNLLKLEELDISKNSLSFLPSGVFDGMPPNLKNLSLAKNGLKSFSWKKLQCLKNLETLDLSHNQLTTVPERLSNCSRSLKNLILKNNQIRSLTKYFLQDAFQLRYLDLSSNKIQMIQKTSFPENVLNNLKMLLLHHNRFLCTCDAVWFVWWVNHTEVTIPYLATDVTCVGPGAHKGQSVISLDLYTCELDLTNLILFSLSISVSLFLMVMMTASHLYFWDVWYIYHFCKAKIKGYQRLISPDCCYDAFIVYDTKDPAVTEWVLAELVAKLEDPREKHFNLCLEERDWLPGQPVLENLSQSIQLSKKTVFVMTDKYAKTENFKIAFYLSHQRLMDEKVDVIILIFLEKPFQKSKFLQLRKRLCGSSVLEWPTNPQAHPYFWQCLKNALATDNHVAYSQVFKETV
T1 sequence (P08684 whole entry): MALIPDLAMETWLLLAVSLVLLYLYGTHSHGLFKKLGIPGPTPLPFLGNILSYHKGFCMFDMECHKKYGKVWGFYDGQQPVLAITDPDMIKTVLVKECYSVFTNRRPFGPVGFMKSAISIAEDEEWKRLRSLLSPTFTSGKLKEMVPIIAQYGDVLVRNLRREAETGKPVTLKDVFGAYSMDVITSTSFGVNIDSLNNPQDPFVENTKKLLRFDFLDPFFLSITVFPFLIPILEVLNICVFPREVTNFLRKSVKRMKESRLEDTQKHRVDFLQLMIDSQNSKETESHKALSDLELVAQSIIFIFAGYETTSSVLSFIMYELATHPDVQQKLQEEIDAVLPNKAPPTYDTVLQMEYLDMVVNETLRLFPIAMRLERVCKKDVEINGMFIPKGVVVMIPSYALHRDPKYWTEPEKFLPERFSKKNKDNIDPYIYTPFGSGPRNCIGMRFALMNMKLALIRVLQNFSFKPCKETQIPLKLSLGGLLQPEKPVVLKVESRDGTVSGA

On to `CCCCOc1nc(N)c2cnn(Cc3ccc(CN4CCC4)cc3)c2n1` [Example 2, 1-(4-(Azetidin-1-ylmethyl)benzyl)-6-butoxy-1H-pyrazolo[3,4-d]pyrimidin-4-amine], for which the IC50 worked out at 10 µM in data set [1] and 19 µM in data set [2]. Moreover, the “MEC to stimulate the secretion of IFN-α from PBMC” value (from here on “MEC to stimulate the secretion”) in data set [3] was 23 nM. In data set [4], this compound came in with an Emax of 91%. In addition, the EC50 in data set [4] was 64 nM.

Consider `CCCCOc1nc(N)c2cnn(Cc3ccc(CN4CCCCC4)cc3)c2n1` [Example 3, 6-Butoxy-1-(4-(piperidin-1-ylmethyl)benzyl)-1H-pyrazolo[3,4-d]pyrimidin-4-amine], for which the IC50 in data set [1] was found to be 7 µM; in data set [2] it was 3 µM. Also, the “MEC to stimulate the secretion” value in data set [3] came to 20 nM. Also, the Emax in data set [4] turned out to be 91%. The compound also gave an EC50 in data set [4] of 77 nM.

For `CCCCOc1nc(N)c2cnn(Cc3cccc(CN4CCCC4)c3)c2n1` [Example 4, 6-Butoxy-1-(3-(pyrrolidin-1-ylmethyl)benzyl)-1H-pyrazolo[3,4-d]pyrimidin-4-amine], the IC50 in data set [1] came to 11 µM. Moreover, in data set [2], the 50% inhibitory concentration (IC50) was determined as 6 µM. Also, the “MEC to stimulate the secretion” value in data set [3] stood at 100 nM. In data set [4], this compound yielded an Emax of 88% and an EC50 of 166 nM.

For the compound `COCCOc1nc(N)c2cnn(Cc3ccc(CN4CCCC4)cc3)c2n1` [Example 7, 6-(2-Methoxyethoxy)-1-(4-(pyrrolidin-1-ylmethyl)benzyl)-1H-pyrazolo[3,4-d]pyrimidin-4-amine], the IC50 in data set [1] was greater than 30 µM. Moreover, the half-maximal inhibitory concentration (IC50) in data set [2] was greater than 30 µM. The “MEC to stimulate the secretion” value in data set [3] was found to be 89 nM. For the same compound, in data set [4], the Emax came to 95% and the EC50 stood at 180 nM.
